Measured values as given in patent US11197859B2 (AUTIFONY THERAPEUTICS LIMITED, priority 2010, dated 2021).

Assays:
[1] = biological target: T1, human Kv3.2 channels (hKv3.2) (Homo sapiens, UniProt Q96PR1); assay: IonWorks Quattro electrophysiology, hKv3.2 currents, activation time constant (Tauact); format: cell-based; settings: hKv3.2, -15 mV pulse; compound 6.25 μM (concentration giving ~0.3 nA current)
T1 construct: expressed in transfected cells
T1 sequence (Q96PR1 1-638): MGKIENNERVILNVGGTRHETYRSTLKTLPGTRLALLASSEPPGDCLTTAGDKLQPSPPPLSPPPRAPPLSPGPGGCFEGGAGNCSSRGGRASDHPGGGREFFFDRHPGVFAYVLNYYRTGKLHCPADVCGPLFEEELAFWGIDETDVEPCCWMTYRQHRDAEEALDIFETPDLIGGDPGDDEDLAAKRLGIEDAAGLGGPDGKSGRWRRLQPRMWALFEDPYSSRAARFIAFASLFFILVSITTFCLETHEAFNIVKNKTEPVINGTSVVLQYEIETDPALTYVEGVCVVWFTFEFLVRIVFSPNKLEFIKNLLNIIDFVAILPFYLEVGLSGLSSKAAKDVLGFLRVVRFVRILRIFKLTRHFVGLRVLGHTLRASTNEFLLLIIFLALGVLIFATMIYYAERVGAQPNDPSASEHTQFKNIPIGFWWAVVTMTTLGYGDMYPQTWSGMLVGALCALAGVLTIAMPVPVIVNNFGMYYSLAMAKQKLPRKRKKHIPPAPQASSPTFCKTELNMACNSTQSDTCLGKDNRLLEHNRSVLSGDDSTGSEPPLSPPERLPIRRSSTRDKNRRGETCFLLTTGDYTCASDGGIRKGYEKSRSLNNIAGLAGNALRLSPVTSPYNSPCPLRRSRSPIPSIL
Description: The ability of the compounds of the disclosure to modulate the voltage-gated potassium channel subtypes Kv3.2/3.1 may be determined using the following assay.
To assess compound effects on human Kv3.2 channels (hKv3.2), a stable cell line expressing hKv3.2 was created by transfecting Chinese Hamster Ovary (CHO)-K1 cells with a pCIH5-hKv3.2 vector. Cells were cultured in DMEM/F12 medium supplemented by 10% Foetal Bovine Serum, 1× non-essential amino acids (Invitrogen) and 500 ug/ml of Hygromycin-B (Invitrogen). Cells were grown and maintained at 37° C. in a humidified environment containing 5% CO2 in air.
The day of the experiment, cells were removed from the incubator and the culture medium removed. Cells were washed with 5 ml of Dulbecco's PBS (DPBS) calcium and magnesium free and detached by the addition of 3 ml Versene (Invitrogen, Italy) followed by a brief incubation at 37° C. for 5 minutes. The flask was tapped to dislodge cells and 10 ml of DPBS containing calcium and magnesium was added to prepare a cell suspension. The cell suspension was then placed into a 15 ml centrifuge tube and centrifuged for 2 min at 1200 rpm. After centrifugation, the supernatant was removed and the cell pellet re-suspended in 4 ml of DPBS containing calcium and magnesium using a 5 ml pipette to break up the pellet. Cell suspension volume was then corrected to give a cell concentration for the assay of approximately 3 million cells per ml.
Experiments were conducted at room temperature using IonWorks Quattro™ planar array electrophysiology technology (Molecular Devices Corp.) with PatchPlate™ PPC. Stimulation protocols and data acquisition were carried out using a microcomputer (Dell Pentium 4). Planar electrode hole resistances(Rp) were determined by applying a 10 mV voltage step across each well. These measurements were performed before cell addition. […] Following this, amphotericin-B solution was added to the intracellular face of the electrode to achieve intracellular access. Cells were held at −70 mV. Leak subtraction was conducted in all experiments by applying 50 ms hyperpolarizing (10 mV) prepulses to evoke leak currents followed by a 20 ms period at the holding potential before test pulses. From the holding potential of −70 mV, a first test pulse to −15 mV was applied for 100 ms and following a further 100 ms at −70 mV, a second pulse to 40 mV was applied for 50 ms. Cells were then maintained for a further 100 ms at −100 mV and then a voltage ramp from −100 mV to 40 mV was applied over 200 ms. In all experiments, the test pulses protocol was performed in the absence (pre-read) and presence (post-read) of the test compound. Pre- and post-reads were separated by the compound addition followed by a 3 minute incubation.
The intracellular solution contained the following (in mM): K-gluconate 100, KCl 54, MgCl2 3.2, HEPES 5, adjusted to pH 7.3 with KOH. Amphotericin-B solution was prepared as 50 mg/ml stock solution in DMSO and diluted to a final working concentration of 0.1 mg/ml in intracellular solution.
The final assay dilution was 200 and the final compound concentrations were in the range 50 μM to 50 nM.
The recordings were analysed and filtered using both seal resistance (>20 MΩ) and peak current amplitude (>500 pA at the voltage step of 40 mV) in the absence of compound to eliminate unsuitable cells from further analysis. Kv3 channel-mediated outward currents were measured determined from the mean amplitude of the current over the final 10 ms of the −15 mV voltage pulse minus the mean baseline current at −70 mV over a 10 ms period just prior to the −15 mV step. This Kv3 channel currents following addition of the test compound were then compared with the currents recorded prior to compound addition. […] The normalised data were analysed using ActivityBase or Excel software.

[2] = tested on: parvalbumin-positive interneurons in the somatosensory cortex; assay: Firing of parvalbumin-positive interneurons in somatosensory cortex slices, in vitro; format: cell-based, mouse; settings: for frequency of action potential firing in response to step currents: vs TEA alone, p<0.05

In the case of `CC[C@H]1NC(=O)N(c2ccc(Oc3ccc(C)c(OC)c3)nc2)C1=O` [RE1, (5R)-5-ethyl-3-(6-{[4-methyl-3-(methyloxy)phenyl]oxy}-3-pyridinyl)-2,4-imidazolidinedione], the “Tauact mean” value [1] is reported as 9.9 ms, the “decrease of mean action potential half-width” value ([2]; TEA (0.5 mM) + compound 1 μM vs TEA (0.5 mM) only, p<0.05, n=9) is reported as 24% and the “frequency of action potential firing in response to step currents” value ([2]; TEA (0.5 mM) + compound 1 μM, n=9) is reported as “significantly reversed”. For the same molecule, the “decrease of mean action potential half-width” value ([2]; TEA (0.5 mM) + compound 10 μM vs TEA (0.5 mM) only, p<0.01, n=5) was 36% and the “frequency of action potential firing in response to step currents” value ([2]; TEA (0.5 mM) + compound 10 μM, n=5) was “significantly reversed”.
